1 compound from patent US6600047B2, “Process for making amlodipine maleate” (Synthon BV, priority 2001, dated 2003) can be followed below.

What is called melting point is the temperature of the solid-liquid transition. With `CCOC(=O)C1=C(COCCNC(CC(=O)O)C(=O)O)NC(C)=C(C(=O)OC)C1c1ccccc1Cl` (stereo not shown) [formula (1)], the melting point was 178 to 183 °C (dec.).
